{
  "source": "paper PMC3969223",
  "about": "“Characterization of WZ4003 and HTH-01-015 as selective inhibitors of the LKB1-tumour-suppressor-activated NUAK kinases” (Biochemical Journal, 2013)",
  "key": {"[1]": {"system": "MYPT1 Ser445 phosphorylation", "experiment": "MYPT1 Ser445 phosphorylation, HEK-293 Flp/In T-Rex overexpressing wild-type HA-NUAK1", "assay_type": "cell-based, human", "conditions": "HEK-293 expressing wild-type NUAK1; 3–10 μM", "method": "(§1) HEK (human embryonic kidney)-293 and U2OS cells were cultured in DMEM (Dulbecco's modified Eagle's medium) supplemented with 10% FBS, 2 mM glutamine and 1×antibacterial/antimycotic solution. NUAK1^+/+ and NUAK1^−/− MEFs were cultured in DMEM supplemented with 10% (v/v) FBS and 2 mM glutamine, 1×antibacterial/antimycotic solution, 1% (v/v) non-essential amino acids and 1% (v/v) sodium pyruvate. HEK-293 Flp/In T-Rex cell lines were cultured in DMEM supplemented with 10% (v/v) FBS and 2 mM glutamine, 1×antibacterial/antimycotic solution, 100 μg/ml hygromycin and 15 μg/ml blasticidin. Supplementing the culture medium with 0.1 μg/ml doxycycline for 16–24 h induced protein expression in the HEK-293 Flp/In T-Rex cells. Cell counting was carried out using Invitrogen Countess following the manufacturer's protocol. A cell-detachment assay was carried out on HEK-293 cells using PBS-EDTA-based cell dissociation buffer as described previously. An inhibitor dose-dependence assay was carried out by treating the cells with various concentrations of the inhibitors as indicated in the Figure legends. The inhibitors were dissolved in DMSO and the total concentration of DMSO in the culture media never exceeded 1%. Transient transfections of HEK-293 cells were carried out using PEI [24]. Stable transfections were carried out in HEK-293 Flp/In T-Rex cells (Invitrogen) following the manufacturer's protocol. […]"}, "[2]": {"system": "MYPT1 Ser445 phosphorylation", "experiment": "MYPT1 Ser445 phosphorylation, HEK-293 Flp/In T-Rex overexpressing HA-NUAK1[A195T]", "assay_type": "cell-based, human", "conditions": "cells expressing drug-resistant NUAK1[A195T]; 30 μM", "method": "as §1"}, "MEFs": {"system": "MEFs", "experiment": "Cell proliferation assay (CellTiter 96 AQueous)", "assay_type": "cell-based, mouse", "conditions": "10 μM, 5 days; same extent as NUAK1-knockout", "method": "Cell proliferation assays were carried out colorimetrically in 96-well plates using the CellTiter 96® AQueous Non-Radioactive Cell Proliferation Assay kit (Promega) following the manufacturer's protocol. Initially, 2000 cells per well were seeded for U2OS cells and 3000 cells per well were seeded for MEFs. The proliferation assays were carried out over 5 days in the presence or absence of 10 μM HTH-01-015 or WZ4003."}, "MYPT1 phosphorylation": {"system": "MYPT1 phosphorylation", "experiment": "MYPT1 phosphorylation on detachment, MEFs", "assay_type": "cell-based, mouse", "conditions": "10 μM, 16 h", "method": "Figure 7 NUAK1 inhibition suppresses cell proliferation (A) U2OS cells were incubated with or without 10 μM WZ4003 or 10 μM HTH-01-015 and a cell proliferation assay was carried out over 5 days in triplicate using the CellTiter 96® AQueous Non-Radioactive Cell Proliferation Assay kit (Promega) (as described in the Materials and methods section). U2OS cells in which NUAK1 has been knocked-down using two different shRNA hairpins were used in parallel as controls. The efficiency of the knock down of each shRNA is shown in top panel. SCR, control scrambled shRNA hairpin; shNUAK1 (1), first NUAK1 shRNA hairpin; shNUAK1 (2), second NUAK1 shRNA hairpin. (B) U2OS cells were treated with (+) or without (−) 10 μM WZ4003 or 10 μM HTH-01-015. After 16 h cell media was removed and cells were treated with EDTA-PBS-based cell dissociation buffer supplemented with 10 μM WZ4003, 10 μM HTH-01–015 or DMSO for 20 min. Cell detachment was induced with gentle tapping of the plates followed by gentle centrifugation at 70 g for 3 min. Cells were lysed immediately after removal of the media and immunoblotted for the detection of the indicated antibodies. (C and D) As above, except NUAK1^+/+ and NUAK1^−/− MEFs were used. Similar results were obtained in three separate experiments."}, "NUAK1+/+ MEFs": {"system": "NUAK1+/+ MEFs", "experiment": "Wound-healing (migration) assay", "assay_type": "cell-based, mouse", "conditions": "10 μM", "method": "MEFs were split and an approximately equal number of cells were loaded into the left and right chambers of the IBIDI Self-Insertion Inserts (catalogue number 80209). Each insert was placed in one well of a 12-well plate and the cells were seeded with or without treatment with the inhibitors. For the comparison of the migration properties of different MEFs on the same video, a single insert was used and an equal number of MEFs were counted and loaded on either chamber of the same insert. To study the effect of inhibitors on cell migration, wound-healing assays on MEFs were also carried out on separate inserts with or without treatment with a 10 μM concentration of WZ4003 or HTH-01-015. Inhibitors were added to the cells 1 h before the start of the migration assay. The experiments were carried out in triplicate. After overnight incubation at 37°C and 5% CO2, the insert was removed and the migration of cells into the 500 μm gap between the chambers was observed. The wound-gap healing properties of the cells were observed over a period of 15–20 h under a Nikon Eclipse Ti microscope with images taken every 2 min by a Photometrics cascade II CCD (charge-coupled device) camera using Nikon NIS Elements software."}},
  "data": [
    {"smiles": "Cc1nc(Nc2cnn(C3CCNCC3)c2)nc2c1N(C)C(=O)c1cc3ccccc3cc1N2C", "note": "[HTH-01-015]", "values": [
      {"measurement": "Suppression of MYPT1 phosphorylation (in words)", "setting": "[1]", "result": "markedly suppressed"},
      {"measurement": "Block of MYPT1 Ser445 phosphorylation (in words)", "setting": "[2]", "result": "failed to block"},
      {"measurement": "Proliferation of MEFs (in words)", "setting": "MEFs", "result": "suppressed proliferation"},
      {"measurement": "Suppression of MYPT1 phosphorylation in MEFs (in words)", "setting": "MYPT1 phosphorylation", "result": "to the same extent as NUAK1-knockout"},
      {"measurement": "Cell migration in wound-healing assay (in words)", "setting": "NUAK1+/+ MEFs", "result": "markedly reduced cell migration"}
    ]},
    {"smiles": "CCC(=O)Nc1cccc(Oc2nc(Nc3ccc(N4CCN(C)CC4)cc3OC)ncc2Cl)c1", "note": "[WZ4003]", "values": [
      {"measurement": "Suppression of MYPT1 phosphorylation (in words)", "setting": "[1]", "result": "markedly suppressed"},
      {"measurement": "Block of MYPT1 Ser445 phosphorylation (in words)", "setting": "[2]", "result": "failed to block"},
      {"measurement": "Proliferation of MEFs (in words)", "setting": "MEFs", "result": "suppressed proliferation"},
      {"measurement": "Suppression of MYPT1 phosphorylation in MEFs (in words)", "setting": "MYPT1 phosphorylation", "result": "to the same extent as NUAK1-knockout"},
      {"measurement": "Cell migration in wound-healing assay (in words)", "setting": "NUAK1+/+ MEFs", "result": "markedly reduced cell migration"}
    ]}
  ]
}
